Experimental data as given in patent US20040039053A1, “Use of(-) (3-halomethylphenoxy) (4-halophenyl) acetic acid derivatives for treatment of insulin resistance, type 2 diabetes, hyperlipidemia and hyperuricemia” (priority 2000, published 2004).
Like-named read-outs stand apart in the source and are kept apart here.

Experiments:
CYP1A2 = target: T1, CYP1A2 (Homo sapiens, UniProt P05177); experiment: in vitro; conditions: both, microsomes
T1 sequence (P05177 1-516): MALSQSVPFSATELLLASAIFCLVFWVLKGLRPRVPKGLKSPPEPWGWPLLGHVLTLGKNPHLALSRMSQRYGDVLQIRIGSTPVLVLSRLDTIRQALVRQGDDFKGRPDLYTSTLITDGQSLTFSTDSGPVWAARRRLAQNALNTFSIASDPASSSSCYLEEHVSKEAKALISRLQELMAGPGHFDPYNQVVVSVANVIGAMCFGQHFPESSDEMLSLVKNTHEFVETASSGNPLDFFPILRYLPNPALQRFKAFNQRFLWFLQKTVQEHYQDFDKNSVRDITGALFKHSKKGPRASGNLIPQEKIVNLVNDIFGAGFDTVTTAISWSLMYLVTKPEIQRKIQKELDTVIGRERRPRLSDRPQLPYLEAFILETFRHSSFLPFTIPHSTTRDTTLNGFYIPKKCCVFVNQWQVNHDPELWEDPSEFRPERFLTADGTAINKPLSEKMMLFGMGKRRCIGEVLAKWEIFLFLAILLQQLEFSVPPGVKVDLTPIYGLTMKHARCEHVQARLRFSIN

CYP2E1 = CYP2E1 (Homo sapiens, UniProt P05181); conditions: both, 20 min
CYP2D6 = CYP2D6 (Homo sapiens, UniProt P10635); conditions: both, 15 min
Chain of CYP2D6 (P10635 whole entry): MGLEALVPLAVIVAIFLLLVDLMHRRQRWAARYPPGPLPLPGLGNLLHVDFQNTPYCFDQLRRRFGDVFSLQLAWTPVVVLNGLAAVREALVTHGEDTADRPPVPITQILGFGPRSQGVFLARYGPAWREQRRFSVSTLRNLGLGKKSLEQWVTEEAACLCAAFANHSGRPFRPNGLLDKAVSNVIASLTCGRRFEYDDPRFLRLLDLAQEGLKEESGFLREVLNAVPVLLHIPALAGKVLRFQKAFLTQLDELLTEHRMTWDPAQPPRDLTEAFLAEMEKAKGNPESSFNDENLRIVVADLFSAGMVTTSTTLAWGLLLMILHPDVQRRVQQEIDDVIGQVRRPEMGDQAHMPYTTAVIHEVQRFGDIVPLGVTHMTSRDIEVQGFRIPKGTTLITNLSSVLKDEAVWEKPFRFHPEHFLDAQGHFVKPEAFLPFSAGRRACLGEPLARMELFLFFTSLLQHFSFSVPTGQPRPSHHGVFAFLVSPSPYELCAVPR

Chain of CYP2E1 (P05181 whole entry): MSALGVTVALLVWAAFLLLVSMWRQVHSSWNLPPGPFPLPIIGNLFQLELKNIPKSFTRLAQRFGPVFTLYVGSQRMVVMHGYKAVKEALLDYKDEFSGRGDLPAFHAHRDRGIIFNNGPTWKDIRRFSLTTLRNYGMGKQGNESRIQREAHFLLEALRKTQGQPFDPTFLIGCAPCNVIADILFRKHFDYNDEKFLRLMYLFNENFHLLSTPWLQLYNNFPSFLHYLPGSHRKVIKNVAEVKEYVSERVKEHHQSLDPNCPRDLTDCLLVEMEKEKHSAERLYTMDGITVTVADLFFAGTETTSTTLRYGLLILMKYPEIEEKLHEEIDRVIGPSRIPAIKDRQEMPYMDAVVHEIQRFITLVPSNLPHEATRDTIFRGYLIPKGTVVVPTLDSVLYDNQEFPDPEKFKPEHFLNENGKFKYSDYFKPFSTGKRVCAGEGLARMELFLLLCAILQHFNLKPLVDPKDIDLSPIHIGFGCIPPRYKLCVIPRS

SMILES: O=C(O)C(Oc1cccc(C(F)(F)F)c1)c1ccc(Cl)cc1 (single isomer, unassigned; (-)) [(−) halofenic acid, (−) 4-chlorophenyl-(3-trifluoromethylphenoxy)-acetic acid]
- inhibition at 30 min, 0.33 μM (CYP1A2): 1%
- inhibition at 30 min, 1 μM (CYP1A2): 0%
- inhibition at 30 min, 3.3 μM (CYP1A2): -1%
- inhibition at 30 min, 10 μM (CYP1A2): -1%
- inhibition at 30 min, 33.3 μM (CYP1A2): -1%
- Chlorzoxazone 6-OH CZX Production (CYP2E1; 0.33 μM): 238 ± 4 pmol/mg protein/min
- Chlorzoxazone 6-OH CZX Production (CYP2E1; 1 μM): 244 ± 1 pmol/mg protein/min
- Chlorzoxazone 6-OH CZX Production (CYP2E1; 3.3 μM): 239 ± 4 pmol/mg protein/min
- Chlorzoxazone 6-OH CZX Production (CYP2E1; 10 μM): 244 ± 6 pmol/mg protein/min
- Chlorzoxazone 6-OH CZX Production (CYP2E1; 33.3 μM): 239 ± 4 pmol/mg protein/min
- Dextromethorphan DEX Production (CYP2D6; 0.33 μM): 107 ± 4 pmol/mg protein/min
- Dextromethorphan DEX Production (CYP2D6; 1 μM): 110 ± 2 pmol/mg protein/min
- Dextromethorphan DEX Production (CYP2D6; 3.3 µM): 104 ± 3 pmol/mg protein/min
- Dextromethorphan DEX Production (CYP2D6; 10 µM): 107 ± 1 pmol/mg protein/min
- Dextromethorphan DEX Production (CYP2D6; 33.3 µM): 106 ± 4 pmol/mg protein/min
